Results published in patent US20250304593A1 (Skyhawk Therapeutics, Inc., priority 2022, published 2025).

Columns and labels:
[1] = system: total ATXN3 protein; assay: ATXN3 total protein assay (Mesoscale Discovery); format: cell-based, Human; details: SK-N-MC cells, 48 hours incubation, MSD assay; read-out: ATXN3 Potency - Protein IC50
Procedure: Human neuroblastoma SK-N-MC cells were seeded at 10,000 cells/well in 384 well plates one day prior to compound treatment. The concentrations of compounds were tested at appropriate doses ranging from 30 µM to 0.6 nM. After incubation for 48 hours, the cells were lysed with 25.L of lysis buffer containing protease inhibitors, and total ATXN3 protein levels were assessed by Mesoscale Discovery (MSD) assay developed with one pair of anti-ATXN3 antibodies. The capture and detect antibodies were raised in mouse and rabbit respectively. Anti-rabbit MSD-ST antibody was used for secondary antibody.
ATXN3 recombinant protein was used for standards. The readouts were captured with 35 μL of MSD read buffer and multi-array 384-well high binding plates.

[2] = system: ATXN3 transcripts containing exon 4 (E4E5); assay: ATXN3 quantitative splicing assay (qPCR, E4E5 primers/probe detecting transcripts containing exon 4); format: cell-based; details: Homo sapiens, SK-N-MC cells, 24 h treatment
Procedure: Human neuroblastoma SK-N-MC cells were plated in 384-well plates at 20,000 cells/well. Twenty-four hours after plating, cells were treated with compounds for 24 h at appropriate concentrations ranging from 30.M to 0.6 nM (0.300 DMS0). Treated cells were lysed in 15.L of lysis buffer, and cDNA was synthesized using the Fast Advanced Cells-to-Ct kit. Two L of each cDNA was used in qPCR reactions to confirm the exon 4 skipped transcripts of ATXN3. A second set of primers/probe E4E5 was used to detect the transcripts containing exon 4. The third set of primers/probe E8E9 was used to detect total gene level of ATXN3. The qPCR reactions were prepared in 384-well plates in 10 L volume, using TaqMan™ Fast Advanced Master Mix with primers and probes shown in the table below. Reactions were run in a Quant Studio 6 qPCR instrument with default settings.
The primers and probes are listed below in Table 4.

[3] = system: ATXN3-HiBiT protein; assay: ATXN3 HiBiT assay (luminescence, Kelly-ATXN3-HiBiT cell line); format: cell-based; details: Kelly-ATXN3-HiBiT cells, read out 48 h after addition of compound
Description: To monitor ATXN3 protein levels by luminescence, a Kelly-ATXN3-HiBiT cell line with homozygous knock-in of HiBiT at the C-terminus of the endogenous ATXN3 gene was used (knock-in of the HiBiT-tag coding sequence SEQ ID NO. 14: 5′[…]3′ into exon 11 of ATXN3 -position 1114 of ATXN3 RefSeq NM_004993.6). Manipulations of the Kelly-ATXN3-HiBiT cell line that result in downregulation of the ATXN3-HiBiT protein (through modulation of ATXN3-HiBiT pre-mRNA splicing) can be followed by monitoring the luminescence signal of the HiBiT tag using the Nano Glo HiBiT Lytic Detection System (Promega, #N3050). Kelly-ATXN3-HiBiT cells were maintained in RPMI 1640 w/Glutamax (Gibco, #61870010), 10% FBS (Sigma Aldrich, #F8687), 1% Penicillin/Streptomycin (Gibco, #15140-122) at 37° C., 5% CO2. To assess HiBiT-luminescence signal upon compound treatment, 2000 Kelly-ATXN3-HiBiT cells were seeded per well in 384 plate format. Compounds were added 24 h after seeding. ATXN3-HiBiT-luminescence signal was read out 48 h after addition of the compound using the Nano Glo HiBiT Lytic Detection System (Promega, #N3050) according to the manufacturer's instructions. To control for cell viability, an identically prepared sister plate was read out with the CellTiter-Glo® 2.0 Assay (Promega, #G9243) according to the manufacturer's instructions. Fold changes of ATXN3-HiBiT-luminescence and of CellTiter-Glo viability signals were calculated relative to a DMSO control condition.

SMILES	IC50 [1] [nM]	IC50 [2] [nM]	EC50 [3] [nM]
CC(N)Cc1cc2nc(Cl)nc(NCc3ccncc3)c2o1 (centres unmarked) [Compound 1, 6-(2-aminopropyl)-2-chloro-N-(pyridin-4-ylmethyl)furo [3,2-d]pyrimidin-4-amine]	10000 to 40000	10000 to 40000	–
Cc1c(C[C@H](C)N)oc2c(NCc3cccs3)nc(Cl)nc12 [Compound 11, 2-[(S)-2-aminopropyl]-5-chloro-3-methyl-7-thenyl-amino-1-oxa-4,6-diaza-indene]	501 to 5000	501 to 5000	–
C[C@H](N)Cc1oc2c(NCc3cccs3)nc(Cl)nc2c1Br [Compound 32, 6-[(2S)-2-aminopropyl]-7-bromo-2-chloro-N-(thiophen-2-ylmethyl)furo[3,2-d]pyrimidin-4-amine]	101 to 500	101 to 500	101 to 500
C/C=C/c1cc2nc(Cl)nc(NCc3ccncc3)c2o1 [Compound 6]	10000 to 40000	10000 to 40000	–
Cc1c(C[C@H](C)N)oc2c(NCc3nccs3)nc(Cl)nc12 [Compound 7]	10000 to 40000	10000 to 40000	–
C#Cc1c(C[C@@H](N)[C@H](C)F)oc2c(NCc3ccco3)nc(Cl)nc12 [Compound 12, 2-[(2R,3S)-2-amino-3-fluoro-butyl]-5-chloro-3-ethynyl-7-(furfurylamino)-1-oxa-4,6-diazaindene]	0.01 to 100	0.01 to 100	0.01 to 100
Cc1coc2c(NCc3ccco3)nc(Cl)nc12 [Compound 10, (furfuryl)(5-chloro-3-methyl-1-oxa-4,6-diaza-7-indenyl)-amine]	501 to 5000	501 to 5000	–
C#Cc1c(C[C@@H](N)[C@H](C)F)oc2c(NCc3cccs3)nc(Cl)nc12 [Compound 13, 6-[(2R,3S)-2-amino-3-fluorobutyl]-2-chloro-7-ethynyl-N-(thiophen-2-ylmethyl)furo[3,2-d]pyrimidin-4-amine]	0.01 to 100	0.01 to 100	0.01 to 100
Cc1c(C[C@H](C)N)oc2c(NCc3ccco3)nc(Cl)nc12 [Compound 8, 2-[(S)-2-aminopropyl]-5-chloro-7-(furfurylamino)-3-methyl-1-oxa-4,6-diaza-indene]	501 to 5000	501 to 5000	–
CC(N)Cc1cc2nc(Cl)nc(NCc3ccccc3)c2o1 (centres unmarked) [Compound 2, 2-(2-aminopropyl)-7-benzyl-amino-5-chloro-1-oxa-4,6-diazaindene]	10000 to 40000	10000 to 40000	–
Cc1coc2c(NCc3nccs3)nc(Cl)nc12 [Compound 9, [(1,3-thiazol-2-yl)methyl](5-chloro-3-methyl-1-oxa-4,6-diaza-7-indenyl)amine]	10000 to 40000	10000 to 40000	–
Clc1nc(NCc2ccncc2)c2occc2n1 [Compound 3, [(4-pyridyl)methyl](5-chloro-1-oxa-4,6-diaza-7-indenyl)-amine]	10000 to 40000	10000 to 40000	–
C[C@H](N)Cc1oc2c(NCc3ccco3)nc(Cl)nc2c1Br [Compound 33, 2-[(S)-2-aminopropyl]-3-bromo-5-chloro-7-(furfur-ylamino)-1-oxa-4,6-diaza-indene]	0.01 to 100	101 to 500	0.01 to 100
Clc1nc(NCc2ccccc2)c2occc2n1 [Compound 4, N-benzyl-2-chlorofuro[3,2-d]pyrimidin-4-amine]	10000 to 40000	10000 to 40000	–
C/C=C/c1cc2nc(Cl)nc(NCc3ccccc3)c2o1 [Compound 5, N-benzyl-2-chloro-6-(prop-1-en-1-yl)furo[3,2-d]pyrimidin-4-amine]	10000 to 40000	10000 to 40000	–
C[C@H](F)[C@H](N)Cc1oc2c(NCc3ccco3)nc(Cl)nc2c1Br [Compound 14, 2-[(2R,3S)-2-amino-3-fluoro-butyl]-3-bromo-5-chloro-7-(furfurylamino)-1-oxa-4,6-diazaindene]	0.01 to 100	0.01 to 100	0.01 to 100

Continued, values first:

IC50 [1] [nM]	IC50 [2] [nM]	EC50 [3] [nM]	SMILES
101 to 500	101 to 500	101 to 500	C#Cc1nc(NCc2cccs2)c2oc(C[C@@H](N)[C@H](C)F)c(Br)c2n1 [Compound 27, 6-[(2R,3S)-2-amino-3-fluorobutyl]-7-bromo-2-ethynyl-N-(thiophen-2-ylmethyl)furo[3,2-d]pyrimidin-4-amine]
101 to 500	0.01 to 100	101 to 500	C[C@H](F)[C@H](N)Cc1oc2c(NCc3cccs3)nc(Cl)nc2c1Br [Compound 15, 2-[(2R,3S)-2-amino-3-fluoro-butyl]-3-bromo-5-chloro-7-thenylamino-1-oxa-4,6-diazaindene]
101 to 500	101 to 500	501 to 5000	C[C@H](F)[C@H](N)Cc1oc2c(NCc3ccccc3)nc(Cl)nc2c1Br [Compound 19, 2-[(2R,3S)-2-amino-3-fluoro-butyl]-7-benzylamino-3-bromo-5-chloro-1-oxa-4,6-diazaindene]
101 to 500	101 to 500	101 to 500	C[C@H](F)[C@H](N)Cc1oc2c(NCc3nccs3)nc(Cl)nc2c1Br [Compound 18, 2-[(2R,3S)-2-amino-3-fluoro-butyl]-3-bromo-5-chloro-7-{[(1,3-thiazol-2-yl)methyl]-amino}-1-oxa-4,6-diaza-indene]
101 to 500	101 to 500	101 to 500	C[C@H](F)[C@H](N)Cc1oc2c(NCc3cccs3)nc(Cl)nc2c1Cl [Compound 17, 2-[(2R,3S)-2-amino-3-fluoro-butyl]-3,5-dichloro-7-thenyl-amino-1-oxa-4,6-diazaindene]
–	501 to 5000	–	C[C@H](F)[C@H](N)Cc1oc2c(NCc3cccs3)nc(Cl)nc2c1-c1ncco1 [Compound 34, 6-[(2R,3S)-2-amino-3-fluorobutyl]-2-chloro-7-(1,3-oxazol-2-yl)-N-(thiophen-2-ylmethyl)furo[3,2-d]pyrimidin-4-amine]
101 to 500	101 to 500	101 to 500	C#Cc1nc(NCc2cccs2)c2oc(C[C@@H](N)[C@H](C)F)c(C#C)c2n1 [Compound 26]
101 to 500	101 to 500	101 to 500	C#Cc1nc(NCc2ccco2)c2oc(C[C@@H](N)[C@H](C)F)c(Br)c2n1 [Compound 28, 2-[(2R,3S)-2-amino-3-fluoro-butyl]-3-bromo-5-ethynyl-7-(furfurylamino)-1-oxa-4,6-diazaindene]
101 to 500	0.01 to 100	0.01 to 100	C[C@H](F)[C@H](N)Cc1oc2c(NCc3ccncc3)nc(Cl)nc2c1Br [Compound 20, 2-[(2R,3S)-2-amino-3-fluoro-butyl]-3-bromo-5-chloro-7-{[(4-pyridyl)methyl]amino}-1-oxa-4,6-diazaindene]
101 to 500	0.01 to 100	0.01 to 100	C[C@H](F)[C@H](N)Cc1oc2c(NCc3ccco3)nc(Cl)nc2c1Cl [Compound 16, 2-[(2R,3S)-2-amino-3-fluoro-butyl]-3,5-dichloro-7-(furfur-ylamino)-1-oxa-4,6-diaza-indene]
